According to patent EP1738740A2, “Use of benzyl-1,3-thiazolidine-2,4-dione compounds for favouring and/or inducing and/or stimulating the pigmentation of keratinic materials and/or for limiting their depigmentation and/or their bleaching” (L'Oreal, priority 2005, dated 2007):

Biological target: T1, 15-PGDH de type 1 (Homo sapiens, UniProt P15428)
T1 sequence (P15428 1-266): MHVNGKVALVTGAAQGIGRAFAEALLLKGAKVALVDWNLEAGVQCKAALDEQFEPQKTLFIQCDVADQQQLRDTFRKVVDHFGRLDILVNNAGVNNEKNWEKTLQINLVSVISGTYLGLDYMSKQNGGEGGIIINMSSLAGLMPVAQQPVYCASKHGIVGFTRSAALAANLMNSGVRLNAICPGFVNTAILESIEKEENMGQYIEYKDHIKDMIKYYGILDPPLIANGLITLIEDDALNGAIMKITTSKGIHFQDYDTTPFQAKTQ
Assay: Test on 15-PGDH type 1: spectrophotometric enzyme inhibition, NADH formation at 340 nm with PGE2 and β-NAD
Type: biochemical
Details: concentration reducing the enzymatic activity of 15-PGDH by 50%; Tris 100 mM pH 7,4, 37°C, 50 µM Prostaglandine E2, 1,5 mM β-NAD
Protocol: L'enzyme 15-PGDH est obtenue comme décrit dans la demande FR 02/05067 déposée au nom de L'Oréal, en suspension dans un milieu adapté à une concentration de 0,3 mg/mL puis bloquée à - 80°C. Pour les besoins du test, cette suspension est décongelée et stockée dans de la glace.
Par ailleurs on prépare un tampon Tris 100 mM, pH = 7,4, contenant 0,1 mM de dithiothréitol (D5545, Sigma-Aldrich, L'isle D'Abeau Chesne, BP 701, 38297, Saint Quentin Fallavier), 1,5 mM de β-NAD (N6522, Sigma-Aldrich, L'isle D'Abeau Chesne, BP 701, 38297, Saint Quentin Fallavier), 50 µM de Prostaglandine E2 (P4172, Sigma-Aldrich, L'isle D'Abeau Chesne, BP 701, 38297, Saint Quentin Fallavier).
Dans la cuve d'un spectrophotomètre (Perkin-Elmer, Lambda 2) thermostaté à 37°C, dont la longueur d'onde de mesure est réglée à 340 nm, sont introduits 0,965 ml de ce tampon (préalablement porté à 37°C). 0,035 mL de suspension enzymatique à 37°C sont introduits dans la cuve concomitamment à l'enregistrement (correspondant à une augmentation de la densité optique à 340 nm). La vitesse maximale de réaction est relevée. […]

IC50: 2.2 µM
SMILES: O=C1NC(=O)C(Cc2ccccc2Oc2ccc(Cl)cc2)S1 (stereo not shown) [compound 1]
